# Assay results reported in ChEMBL document CHEMBL4428061, “Effects of 5-O-Ribosylation of Aminoglycosides on Antimicrobial Activity and Selective Perturbation of Bacterial Translation” (J Med Chem, 2016).
# Experiments:
# [1] = system: Ribosomal RNA A-site; assay: Binding affinity to 16S rRNA A-site in Escherichia coli S30 extract assessed as inhibition of translation measured after 30 mins by coupled transcription/translation-based luciferase reporter gene assay; format: nucleic-acid assay
# [2] = system: Escherichia coli; assay: Antimicrobial activity against aminoglycoside-resistant Escherichia coli ATCC BAA-2452 measured after 24 hrs by double-dilution method; format: functional; settings: ATCC BAA-2452, 24 h
# [3] = system: Pseudomonas aeruginosa; assay: Antimicrobial activity against Pseudomonas aeruginosa ATCC 27853 measured after 24 hrs by double-dilution method; format: functional; settings: ATCC 27853, 24 h
# [4] = system: Klebsiella pneumoniae; assay: Antimicrobial activity against Klebsiella pneumoniae ATCC 13883 measured after 24 hrs by double-dilution method; format: functional; settings: ATCC 13883, 24 h
# [5] = Inhibition of cytosolic eukaryotic translation in rabbit reticulocyte S30 extract measured after 60 mins by coupled transcription/translation-based luciferase reporter gene assay; set-up: species or system Oryctolagus cuniculus
# [6] = system: Haemophilus influenzae; assay: Antimicrobial activity against Haemophilus influenzae ATCC 10211 measured after 24 hrs by double-dilution method; format: functional; settings: ATCC 10211, 24 h
# [7] = system: Pseudomonas aeruginosa; assay: Antimicrobial activity against Pseudomonas aeruginosa ATCC 47085 measured after 24 hrs by double-dilution method; format: functional; settings: ATCC 47085, 24 h
# [8] = system: Acinetobacter baumannii; assay: Antimicrobial activity against Acinetobacter baumannii ATCC 19606 measured after 24 hrs by double-dilution method; format: functional; settings: ATCC 19606 = CIP 70.34 = JCM 6841, 24 h
# [9] = system: Klebsiella pneumoniae; assay: Antimicrobial activity against Klebsiella pneumoniae ATCC 10031 measured after 24 hrs by double-dilution method; format: functional; settings: ATCC 10031, 24 h
# [10] = system: Escherichia coli; assay: Antimicrobial activity against Escherichia coli ATCC 25922 measured after 24 hrs by double-dilution method; format: functional; settings: ATCC 25922, 24 h
# [11] = system: Haemophilus influenzae; assay: Antimicrobial activity against Haemophilus influenzae ATCC 49247 measured after 24 hrs by double-dilution method; format: functional; settings: ATCC 49247, 24 h
# [12] = system: Burkholderia cepacia; assay: Antimicrobial activity against aminoglycoside-resistant Burkholderia cepacia ATCC 25416 measured after 24 hrs by double-dilution method; format: functional; settings: ATCC 25416, 24 h
# [13] = system: Klebsiella pneumoniae; assay: Antimicrobial activity against aminoglycoside-resistant Klebsiella pneumoniae ATCC BAA-2470 measured after 24 hrs by double-dilution method; format: functional; settings: ATCC BAA-2470, 24 h
# [14] = system: cytosolic eukaryotic translation versus 16S rRNA A-site; assay: Selectivity ratio, ratio of IC50 for cytosolic eukaryotic translation in rabbit reticulocyte S30 extract to IC50 for 16S rRNA A-site in Escherichia coli S30 extract; format: toxicity; settings: read-out: Ratio IC50
# [15] = Acute toxicity in iv dosed rat; format: organism-based; settings: in vivo
SMILES,IC50 [1] [µM],MIC [2] [µg/mL],MIC [3] [µg/mL],MIC [4] [µg/mL],IC50 [5] [µM],MIC [6] [µg/mL],MIC [7] [µg/mL],MIC [8] [µg/mL],MIC [9] [µg/mL],MIC [10] [µg/mL],MIC [11] [µg/mL],MIC [12] [µg/mL],MIC [13] [µg/mL],selectivity ratio [14],LD50 [15] [mg/kg]
NC[C@H]1O[C@H](O[C@H]2[C@H](O)[C@@H](O[C@H]3O[C@H](CO)[C@@H](O)[C@H](N)[C@H]3O)[C@H](N)C[C@@H]2N)[C@H](O)[C@@H](O)[C@@H]1O [KANAMYCIN],0.1,> 32,> 32,4,111,8,> 32,8,4,4,8,> 32,> 32,1110,
NCC[C@H](O)C(=O)N[C@@H]1C[C@H](N)[C@@H](O[C@H]2O[C@H](CN)[C@@H](O)[C@H](O)[C@H]2O)[C@H](O[C@@H]2O[C@H](CO)[C@@H](O)[C@H]2O)[C@H]1O[C@H]1O[C@H](CO)[C@@H](O)[C@H](N)[C@H]1O,6.44,> 32,> 32,> 32,193,> 32,> 32,> 32,> 32,> 32,> 32,> 32,> 32,30,
NC[C@H]1O[C@H](O[C@H]2[C@H](O)[C@@H](O)[C@H](N)C[C@@H]2N)[C@H](N)C[C@@H]1O,0.43,> 32,> 32,> 32,121,> 32,> 32,> 32,> 32,16,> 32,> 32,> 32,282,
NC[C@H]1O[C@H](O[C@H]2[C@H](O[C@@H]3O[C@H](CO)[C@@H](O)[C@H]3O)[C@@H](O[C@H]3O[C@H](CO)[C@@H](O)[C@H](N)[C@H]3O)[C@H](N)C[C@@H]2N)[C@H](N)C[C@@H]1O,0.08,> 32,4,2,49.1,8,2,32,2,4,8,> 32,> 32,614,
NC[C@H]1O[C@H](O[C@H]2[C@H](O)[C@@H](O[C@H]3O[C@H](CO)[C@@H](O)[C@H](N)[C@H]3O)[C@H](N)C[C@@H]2N)[C@H](N)[C@@H](O)[C@@H]1O [BEKANAMYCIN],0.04,> 32,> 32,1,28.9,2,> 32,4,1,4,4,> 32,> 32,722,
NC[C@H]1O[C@H](O[C@H]2[C@H](O[C@@H]3O[C@H](CO)[C@@H](O)[C@H]3O)[C@@H](O[C@H]3O[C@H](CO)[C@@H](O)[C@H](N)[C@H]3O)[C@H](N)C[C@@H]2N)[C@H](N)[C@@H](O)[C@@H]1O,0.03,> 32,> 32,4,43.8,8,> 32,> 32,4,4,8,> 32,> 32,1460,
NC[C@H]1O[C@H](O[C@H]2[C@H](O[C@@H]3O[C@H](CO)[C@@H](O)[C@H]3O)[C@@H](O)[C@H](N)C[C@@H]2N)[C@H](N)[C@@H](O)[C@@H]1O [RIBOSTAMYCIN],0.09,> 32,> 32,8,116,8,> 32,16,8,4,8,> 32,> 32,1290,
NCC[C@H](O)C(=O)N[C@@H]1C[C@H](N)[C@@H](O[C@H]2O[C@H](CN)[C@@H](O)[C@H](O)[C@H]2O)[C@H](O)[C@H]1O[C@H]1O[C@H](CO)[C@@H](O)[C@H](N)[C@H]1O [AMIKACIN],0.07,> 32,8,4,64.6,32,4,4,4,2,32,> 32,> 32,923,
NC[C@H]1O[C@H](O[C@H]2[C@H](O)[C@@H](O)[C@H](N)C[C@@H]2N)[C@H](N)[C@@H](O)[C@@H]1O [NEAMINE],0.46,> 32,> 32,16,99,32,> 32,> 32,16,16,32,> 32,> 32,215,121 to 129
NC[C@H]1O[C@H](O[C@H]2[C@H](O[C@@H]3O[C@H](CO)[C@@H](O)[C@H]3O)[C@@H](O)[C@H](N)C[C@@H]2N)[C@H](N)C[C@@H]1O,0.11,> 32,4,8,135,4,4,32,4,2,4,> 32,> 32,1230,
NC[C@H]1O[C@H](O[C@H]2[C@H](O)[C@@H](O[C@H]3O[C@H](CO)[C@@H](O)[C@H](N)[C@H]3O)[C@H](N)C[C@@H]2N)[C@H](N)C[C@@H]1O [TOBRAMYCIN],0.07,> 32,1,1,42.3,4,1,2,1,2,4,> 32,> 32,605,
